Columns and labels:
human TLR7 = target: T1, human TLR7 (Homo sapiens, UniProt Q9NYK1); assay: TLR7 cellular reporter assay (HEK293, NFκB-luc); assay type: cell-based; conditions: HEK293 cells transfected with CMV-TLR7 and NFκB-luc, 6 hours incubation; lowest effective concentration
T1 construct: expressed in transfected cells; host or cells: HEK293 cells, transient transfection with CMV-TLR7 plasmid and NFκB-luc plasmid
T1 sequence (Q9NYK1 27-1049): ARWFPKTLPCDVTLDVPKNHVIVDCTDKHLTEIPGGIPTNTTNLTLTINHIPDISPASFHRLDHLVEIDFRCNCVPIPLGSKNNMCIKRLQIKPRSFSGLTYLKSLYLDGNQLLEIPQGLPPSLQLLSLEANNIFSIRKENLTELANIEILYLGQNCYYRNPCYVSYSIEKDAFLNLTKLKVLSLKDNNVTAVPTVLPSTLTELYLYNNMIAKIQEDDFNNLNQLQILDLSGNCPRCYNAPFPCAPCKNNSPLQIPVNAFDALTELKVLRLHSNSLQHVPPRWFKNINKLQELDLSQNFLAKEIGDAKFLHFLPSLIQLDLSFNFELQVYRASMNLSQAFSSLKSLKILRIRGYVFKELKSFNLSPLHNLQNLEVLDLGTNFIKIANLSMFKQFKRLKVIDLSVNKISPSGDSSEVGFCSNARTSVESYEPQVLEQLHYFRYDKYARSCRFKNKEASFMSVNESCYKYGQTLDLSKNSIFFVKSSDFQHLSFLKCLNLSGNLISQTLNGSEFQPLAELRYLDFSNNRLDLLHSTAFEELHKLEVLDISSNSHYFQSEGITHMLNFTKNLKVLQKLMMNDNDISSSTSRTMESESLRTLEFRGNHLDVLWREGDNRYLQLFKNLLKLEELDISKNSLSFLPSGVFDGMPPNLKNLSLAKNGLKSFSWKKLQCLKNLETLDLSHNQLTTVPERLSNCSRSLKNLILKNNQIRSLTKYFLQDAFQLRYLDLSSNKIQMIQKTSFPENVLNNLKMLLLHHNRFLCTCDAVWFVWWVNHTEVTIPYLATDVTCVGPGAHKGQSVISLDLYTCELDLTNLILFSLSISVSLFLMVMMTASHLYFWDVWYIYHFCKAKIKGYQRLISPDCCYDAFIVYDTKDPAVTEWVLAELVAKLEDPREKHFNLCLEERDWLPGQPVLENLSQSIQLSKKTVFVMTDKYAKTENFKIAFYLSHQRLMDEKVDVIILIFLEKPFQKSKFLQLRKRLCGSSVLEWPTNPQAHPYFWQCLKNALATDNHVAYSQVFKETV
Method: (§1) The ability of compounds to activate human TLR7 and/or TLR8 was assessed in a cellular reporter assay using HEK293 cells transiently transfected with a TLR7 or TLR8 expression vector and NFκB-luc reporter construct.
(§2) Briefly, HEK293 cells were grown in culture medium (DMEM supplemented with 10% FCS and 2 mM Glutamine). […] Thirty microliters of cells were then dispensed into each well in 384-well plates, where 10 μL of compound in 4% DMSO was already present. Following 6 hours incubation at 37° C., 5% CO2, the luciferase activity was determined by adding 15 μL of Steady Lite Plus substrate (Perkin Elmer) to each well and readout performed on a ViewLux ultraHTS microplate imager (Perkin Elmer). Dose response curves were generated from measurements performed in quadruplicates.

[1] = test system: interferon-stimulated responsive elements (ISRE); assay: Activation of ISRE promoter elements by conditioned media from PBMC (HEK-ISREluc); assay type: cell-based, human; conditions: Homo sapiens; conditioned media from PBMC transferred to HEK-ISREluc cells, 24 hours; lowest effective concentration; read-out: PBMC LEC
Method: The potential of compounds to induce IFN-I was also evaluated by measuring the activation of interferon-stimulated responsive elements (ISRE) by conditioned media from PBMC. The ISRE element of sequence […] (SEQ. ID NO:1) is highly responsive to the STAT1-STAT2-IRF 9 transcription factor, activated upon binding of IFN-I to their receptor IFNAR (Clontech, PT3372-5W). […] A HEK293 cell line stably transfected with pISRE-Luc (HEK-ISREluc) was established to profile of the conditioned PBMC cell culture media.
Briefly, PBMCs were prepared from buffy coats of at least two donors using a standard Ficoll centrifugation protocol. Isolated PBMCs were resuspended in RPMI medium supplemented with 10% human AB serum and 2×10^5 cells/well were dispensed into 384-well plates containing compounds (70 μL total volume). After overnight incubation, 10 μL of supernatant was transferred to 384-well plates containing 5×10^3 HEK-ISREluc cells/well in 30 μL (plated the day before). Following 24 hours of incubation, activation of the ISRE elements was measured by assaying luciferase activity using 40 μL/well Steady Lite Plus substrate (Perkin Elmer) and measured with ViewLux ultraHTS microplate imager (Perkin Elmer). The stimulating activity of each compound on the HEK-ISREluc cells was reported as LEC value, defined as the compound concentration applied to the PBMCs resulting in a luciferase activity at least two fold above the standard deviation of the assay. The LEC in turn indicates the degree of ISRE activation on transfer of a defined amount of PBMC culture medium. Recombinant interferon α-2a (Roferon-A) was used as a standard control compound.

human TLR8 = target: T2, human TLR8 (Homo sapiens, UniProt Q9NR97); assay: TLR8 cellular reporter assay (HEK293, NFκB-luc); assay type: cell-based; conditions: HEK293 cells transfected with CMV-TLR8 and NFκB-luc, 6 hours incubation; lowest effective concentration
T2 construct: expressed in transfected cells; host or cells: HEK293 cells, transient transfection with TLR8 plasmid and NFκB-luc plasmid
T2 sequence (Q9NR97 27-1041): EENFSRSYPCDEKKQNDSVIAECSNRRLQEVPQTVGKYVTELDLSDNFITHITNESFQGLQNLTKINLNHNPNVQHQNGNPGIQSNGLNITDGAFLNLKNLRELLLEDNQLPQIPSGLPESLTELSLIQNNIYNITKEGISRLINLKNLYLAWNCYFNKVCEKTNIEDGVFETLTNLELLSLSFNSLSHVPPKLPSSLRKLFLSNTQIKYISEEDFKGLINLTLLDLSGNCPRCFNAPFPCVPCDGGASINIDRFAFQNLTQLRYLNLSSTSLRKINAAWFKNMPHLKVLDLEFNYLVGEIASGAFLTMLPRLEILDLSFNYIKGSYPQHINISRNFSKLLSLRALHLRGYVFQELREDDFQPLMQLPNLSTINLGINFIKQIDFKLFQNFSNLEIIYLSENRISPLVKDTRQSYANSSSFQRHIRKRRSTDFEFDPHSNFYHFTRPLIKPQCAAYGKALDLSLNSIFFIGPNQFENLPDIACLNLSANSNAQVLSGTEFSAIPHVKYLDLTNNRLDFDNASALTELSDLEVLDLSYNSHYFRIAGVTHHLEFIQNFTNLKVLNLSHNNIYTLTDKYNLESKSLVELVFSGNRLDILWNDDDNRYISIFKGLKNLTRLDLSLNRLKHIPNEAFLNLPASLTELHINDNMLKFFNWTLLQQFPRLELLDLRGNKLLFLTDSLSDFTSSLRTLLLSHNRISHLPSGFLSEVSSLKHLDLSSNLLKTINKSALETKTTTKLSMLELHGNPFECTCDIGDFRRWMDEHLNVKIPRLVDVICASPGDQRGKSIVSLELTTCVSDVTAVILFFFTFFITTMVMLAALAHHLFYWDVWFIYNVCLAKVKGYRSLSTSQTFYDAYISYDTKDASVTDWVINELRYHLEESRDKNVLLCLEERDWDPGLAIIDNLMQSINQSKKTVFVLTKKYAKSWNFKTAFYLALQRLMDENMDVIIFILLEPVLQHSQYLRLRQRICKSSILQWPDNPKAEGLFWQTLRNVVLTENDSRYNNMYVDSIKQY
Method: as §1, §2

| TLR7 LEC (human TLR7) [µM] | TLR8 LEC (human TLR8) [µM] | Compound | minimal effective concentration [1] [µM] |
| --- | --- | --- | --- |
| 0.03 | >25 | Cc1cccc(Cn2ccc3nc(N)nc(NCc4cc(C)on4)c32)n1 [Compound 90] | 0.01 |
| 0.637 | >25 | COCCNc1nc(N)nc2ccn(Cc3cccc(CN4CCCC4)c3)c12 [Compound 111] | 0.293 |
| 1.51 | >25 | CC(CNc1nc(N)nc2ccn(Cc3ccccc3)c12)C1CC1 (stereo not drawn) [Compound 44] | 2.45 |
| 4.49 | >25 | COCCNc1nc(N)nc2ccn(Cc3ncc(C)c(OC)c3C)c12 [Compound 147] | 2.02 |
| 8.76 | >25 | CC(C)(O)CCNc1nc(N)nc2ccn(Cc3ccccn3)c12 [Compound 198] | 0.617 |
| 0.04 | >25 | COc1c(C)cnc(Cn2ccc3nc(N)nc(NCc4cc(C)on4)c32)c1C [Compound 169] | 0.011 |
| 0.02 | >25 | COc1ncccc1Cn1ccc2nc(N)nc(NCc3cc(C)on3)c21 [Compound 179] | 0.003 |
| 1.3 | >25 | CCCCNc1nc(N)nc2ccn(Cc3ccccc3Br)c12 [Compound 6] | 0.7 |
| 0.15 | >25 | Cc1cc(CNc2nc(N)nc3ccn(Cc4cccc(F)n4)c23)no1 [Compound 178] | 0.014 |
| 1.41 | >25 | Nc1nc(NCC2CCCO2)c2c(ccn2Cc2ccccn2)n1 (stereo not drawn) [Compound 139] | 0.588 |
| 0.05 | >25 | Cc1cc(CNc2nc(N)nc3ccn(Cc4cccc(CN5CCCC5)c4)c23)no1 [Compound 153] | 0.002 |
| 0.10 | 4.46 | CCC[C@@H](CCO)Nc1nc(N)nc2ccn(CC3CCCO3)c12 (stereo partly drawn) [Compound 92] | 0.02 |
| 0.01 | 3.26 | CCCC[C@@H](CCO)Nc1nc(N)nc2c(F)cn(Cc3ccccc3)c12 [Compound 95] | 0.007 |
| 1.01 | >25 | Nc1nc(NCc2ccccn2)c2c(ccn2Cc2ccccc2)n1 [Compound 61] | 1.95 |
| <0.0006 | 0.689 | CCC[C@@H](CCO)Nc1nc(N)nc2ccn(Cc3ccccc3OC)c12 [Compound 80] | < 0.0004 |
| 0.172 | >25 | COCCNc1nc(N)nc2ccn(Cc3ccncc3OC)c12 [Compound 121] | 0.046 |
| <0.01 | 0.14 | CCC[C@@H](CCO)Nc1nc(N)nc2ccn(Cc3c(OC)cccc3OC)c12 [Compound 102] | < 0.001 |
| 0.28 | >25 | CCCCNc1nc(N)nc2ccn(Cc3ccc(F)cc3)c12 [Compound 42] | 0.16 |
| 2.950 | >22.7 | COCCNc1nc(N)nc2ccn(Cc3ccc(C(F)(F)F)cn3)c12 [Compound 117] | 1.43 |
| 0.39 | >25 | Nc1nc(NCc2nccs2)c2c(ccn2Cc2ccccc2)n1 [Compound 60] | 0.33 |
| 0.16 | 0.67 | CCC[C@@H](CCO)Nc1nc(N)nc2ccn(CC(C)C)c12 [Compound 30] | 0.05 |
| 0.50 | >25 | CCCCNc1nc(N)nc2ccn(Cc3ccccc3Oc3ccccc3)c12 [Compound 2] | 0.6 |
| 0.01 | >25 | COc1cc(OC)nc(Cn2ccc3nc(N)nc(NCc4cc(C)on4)c32)n1 [Compound 180] | 0.004 |
| 0.12 | 24.61 | CCCC[C@@H](CCO)Nc1nc(N)nc2ccn(Cc3ccncc3)c12 [Compound 40] | 0.004 |
| 0.59 | >25 | Cc1cc(CNc2nc(N)nc3ccn(Cc4ccc5cccnc5n4)c23)no1 [Compound 183] | 0.009 |
| 0.22 | >25 | CCC[C@H](CO)Nc1nc(N)nc2ccn(Cc3ccccc3)c12 [Compound 31] | 0.16 |

| Compound | TLR7 LEC (human TLR7) [µM] | TLR8 LEC (human TLR8) [µM] | minimal effective concentration [1] [µM] |
| --- | --- | --- | --- |
| CCCCNc1nc(N)nc2ccn(CCN3CCOCC3)c12 [Compound 67] | 0.056 | 6.71 | 0.04 |
